Reference: PMC5972579 (Brain, 2018)

How the values were obtained:
GPR52 [1] = molecular target: T1, GPR52 (Homo sapiens, UniProt Q9Y2T5); assay: inhibition of WO-[…])-stimulated cAMP; assay type: cell-based
GPR52 [2] = molecular target: T1, GPR52; assay: intracellular cAMP HTRF assay; assay type: cell-based

T1 sequence (Q9Y2T5 whole entry): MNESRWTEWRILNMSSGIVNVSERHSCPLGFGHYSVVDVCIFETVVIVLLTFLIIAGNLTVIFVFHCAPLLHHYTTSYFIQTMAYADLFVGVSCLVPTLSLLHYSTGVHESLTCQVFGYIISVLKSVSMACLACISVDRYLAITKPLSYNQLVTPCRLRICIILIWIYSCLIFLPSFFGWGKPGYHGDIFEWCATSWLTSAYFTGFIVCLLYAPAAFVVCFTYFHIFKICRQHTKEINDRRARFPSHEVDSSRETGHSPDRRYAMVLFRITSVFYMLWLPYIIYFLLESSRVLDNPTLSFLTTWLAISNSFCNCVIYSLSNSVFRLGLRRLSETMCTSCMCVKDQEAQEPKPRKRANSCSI

IC50 (GPR52 [1]) [µM] | EC50 (GPR52 [2]) [µM] | SMILES
12 ± 0.7 |  | C=C1C(=O)O[C@@H]2/C=C(\C)CC3C=C(C[C@H](OC(=O)/C(C)=C\C)[C@@H]12)C(=O)O3 (mixture of isomers) [E7, (3S,4R,8R,9E)-10-methyl-5-methylidene-6,14-dioxo-7,13-dioxatricyclo[10.2.1.0⁴,⁸]pentadeca-1(15),9-dien-3-yl (2Z)-2-methylbut-2-enoate]
 | 0.006 ± 0.0007 | Cc1nn(-c2cccc3cc(Cc4cccc(C(F)(F)F)c4)sc23)cc1C(=O)NCCO [WO-459, N-(2-hydroxyethyl)-3-methyl-1-[2-[3-(trifluoromethyl)benzyl]benzothiophen-7-yl]-1H-pyrazole-4-carboxamide]
